# Assay results taken from patent US11352350B2, “IRAK degraders and uses thereof” (Kymera Therapeutics, Inc., priority 2018, dated 2022).
# Like-named read-outs stand apart in the source and are kept apart here.
# Experiments:
# OCI-LY10 = assay: CTG Cell Viability Assay - OCI-LY10; format: cell-based, human; settings: Homo sapiens, OCI-Ly10, 96 h, OCI-LY10, 4 days; read-out: CTG Cell Viability Assay - OCI-LY10: Average external-IC50
# In short: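 OCI-LY10 cells exposed to 9-dose, 1:3 dilutions from 10 μM top (0.2% DMSO) for 4 days at 37° C, 5% CO2. Viability by CellTiter-Glo luminescence; IC50 from three-parameter logistic fit.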
# IRAK4 = IRAK4 (Homo sapiens (Human), UniProt Q9NWZ3); assay: IRAK4 MSD degradation in OCI-LY10; format: cell-based
# Chain of IRAK4 (Q9NWZ3 whole entry): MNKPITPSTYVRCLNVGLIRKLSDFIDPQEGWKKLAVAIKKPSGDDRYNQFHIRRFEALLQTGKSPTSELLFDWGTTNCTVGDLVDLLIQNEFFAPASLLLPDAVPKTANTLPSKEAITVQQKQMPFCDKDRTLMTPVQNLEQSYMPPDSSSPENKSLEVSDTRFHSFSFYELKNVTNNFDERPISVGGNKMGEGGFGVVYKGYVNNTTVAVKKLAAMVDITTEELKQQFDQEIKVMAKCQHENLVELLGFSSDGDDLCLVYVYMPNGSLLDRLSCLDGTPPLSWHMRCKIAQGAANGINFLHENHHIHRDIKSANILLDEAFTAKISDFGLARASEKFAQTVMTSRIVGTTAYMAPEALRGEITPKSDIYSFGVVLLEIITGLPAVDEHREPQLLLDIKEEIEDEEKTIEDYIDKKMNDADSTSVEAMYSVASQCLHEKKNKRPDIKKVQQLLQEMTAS
# In short: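 OCI-LY10 cells treated with 8-point 1:3 dilutions (top 1 to 10 μM final) for 4 to 24 h at 37° C. Lysate IRAK4 measured by MSD sandwich immunoassay (2H9 capture, Y279 detection, SULFO-TAG anti-rabbit). DC50 from three-parameter logistic fit.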
# [1] = OCI-LY10, 4 hrs, MSD, read-out: IRAK4 MSD degradation in OCI-LY10 at 4 hrs: Average external-Abs DC50
# [2] = OCI-LY10, 24 hrs, MSD, read-out: IRAK4 MSD degradation in OCI-LY10 at 24 hrs: Average external-Abs DC50
# [3] = OCI-LY10, 4 hrs, read-out: IRAK4 MSD degradation in OCI-LY10 at 4 hrs: DC50
# [4] = OCI-LY10, 24 hrs, read-out: IRAK4 MSD degradation in OCI-LY10 at 24 hrs: DC50
smiles,measurement,setting,value
Cn1c(=O)n(C2CCC(=O)NC2=O)c2cccc(CCCOCCOCCNC(=O)[C@H]3CC[C@@H](n4cc(NC(=O)c5coc(-c6ccnc(NCC7CC7)c6)n5)c(C(F)F)n4)CC3)c21 (stereo partly shown) [I-15],IC50,OCI-LY10,> 1000 nM
same,DC50,IRAK4; [1],10 to 100 nM
same,DC50,IRAK4; [2],10 to 100 nM
O=C1CCC(N2C(=O)c3cccc(NCCCOC4CCN(Cc5ccc(-n6cc(NC(=O)c7cnn8ccc(N9C[C@H]%10CC9CO%10)nc78)c(C(F)F)n6)cc5)CC4)c3C2=O)C(=O)N1 (stereo partly shown) [I-438],IC50,OCI-LY10,50 to 100 nM
same,DC50,IRAK4; [1],100 to 1000 nM
same,DC50,IRAK4; [2],10 to 100 nM
CN(C[C@H]1CC[C@H](n2cc(NC(=O)c3cnn4ccc(N5C[C@H]6C[C@@H]5CO6)nc34)c(C(F)F)n2)CC1)C1CCC(CNc2cccc3c2C(=O)N(C2CCC(=O)NC2=O)C3=O)CC1 (stereo partly shown) [I-324],IC50,OCI-LY10,< 50 nM
same,DC50,IRAK4; [1],100 to 1000 nM
CN(CCN1CCO[C@@H](CNc2cccc3c2C(=O)N(C2CCC(=O)NC2=O)C3=O)C1)C[C@H]1CC[C@H](n2cc(NC(=O)c3cnn4ccc(N5C[C@H]6C[C@@H]5CO6)nc34)c(C(F)F)n2)CC1 (stereo partly shown) [I-500],IC50,OCI-LY10,50 to 100 nM
same,DC50,IRAK4; [3],100 to 1000 nM
same,DC50,IRAK4; [4],10 to 100 nM
CN(Cc1ccc(-n2cc(NC(=O)c3coc(-c4ccnc(NCC5CC5)c4)n3)c(C(F)F)n2)cc1)C1CCN(Cc2cccc3c2n(C)c(=O)n3C2CCC(=O)NC2=O)CC1 (stereo not shown) [I-389],IC50,OCI-LY10,< 50 nM
same,DC50,IRAK4; [1],10 to 100 nM
same,DC50,IRAK4; [2],10 to 100 nM
Cc1ccc(-n2nc(C3CCN(CCCCCOCCCc4ccc5c(c4)n(C)c(=O)n5C4CCC(=O)NC4=O)CC3)cc2NC(=O)c2cnn3cccnc23)nc1 (stereo not shown) [I-273],IC50,OCI-LY10,> 1000 nM
same,DC50,IRAK4; [1],> 1000 nM
same,DC50,IRAK4; [2],> 1000 nM
CN1C(=O)CCC(N2C(=O)c3cccc(NCC4CC5(CCN(C[C@H]6CC[C@H](n7cc(NC(=O)c8cnn9ccc(N%10C[C@H]%11C[C@@H]%10CO%11)nc89)c(C(F)F)n7)CC6)CC5)C4)c3C2=O)C1=O (stereo partly shown) [I-323],IC50,OCI-LY10,> 1000 nM
same,DC50,IRAK4; [1],100 to 1000 nM
same,DC50,IRAK4; [2],> 1000 nM
CN(CCCOCCCNc1cccc2c1C(=O)N(C1CCC(=O)NC1=O)C2=O)C[C@H]1CC[C@H](n2cc(NC(=O)c3cnn4ccc(NCC5CC5)nc34)c(C(F)F)n2)CC1 (stereo partly shown) [I-437],IC50,OCI-LY10,100 to 500 nM
same,DC50,IRAK4; [1],10 to 100 nM
same,DC50,IRAK4; [2],10 to 100 nM
CC[C@@H]1[C@H](F)C(=O)N[C@@H]1COc1ncc(C#CC2CCN(CC3CCN(Cc4cccc5c4n(C)c(=O)n5C4CCC(=O)NC4=O)CC3)CC2)c2cc(C(N)=O)c(OC)cc12 (stereo partly shown) [I-194],IC50,OCI-LY10,> 1000 nM
same,DC50,IRAK4; [1],10 to 100 nM
Cn1c(=O)n(C2CCC(=O)NC2=O)c2cccc(CCCOCCCOC3CCN(C4CCC(Nc5ncnc6ccc(C#N)cc56)CC4)CC3)c21 (stereo not shown) [I-271],IC50,OCI-LY10,> 1000 nM
same,DC50,IRAK4; [1],> 1000 nM
same,DC50,IRAK4; [2],> 1000 nM
Cn1c(=O)n(C2CCC(=O)NC2=O)c2cccc(CCCOCCCN3CCC(n4cc(NC(=O)c5cnn6ccc(N7CCNCC7)nc56)c(C(F)F)n4)CC3)c21 (stereo not shown) [I-180],IC50,OCI-LY10,> 1000 nM
same,DC50,IRAK4; [1],10 to 100 nM
O=C1CCC(N2C(=O)c3cccc(N[C@H]4C[C@H](OC5CCN(C[C@H]6CC[C@H](n7cc(NC(=O)c8cnn9ccc(N%10CCOCC%10)nc89)c(C(F)F)n7)CC6)CC5)C4)c3C2=O)C(=O)N1 (stereo partly shown) [I-506],IC50,OCI-LY10,500 to 1000 nM
same,DC50,IRAK4; [3],10 to 100 nM
same,DC50,IRAK4; [4],< 10 nM
CC(C)(O)c1nn([C@H]2CC[C@H](CN3CCC(OCCNc4cccc5c4C(=O)N(C4CCC(=O)NC4=O)C5=O)CC3)CC2)cc1NC(=O)c1cnn2ccc(N3CCOCC3)nc12 (stereo partly shown) [I-217],IC50,OCI-LY10,50 to 100 nM
same,DC50,IRAK4; [1],100 to 1000 nM
same,DC50,IRAK4; [2],> 1000 nM
O=C1CCC(n2c(=O)oc3c(CCCOC4CCN(C[C@H]5CC[C@H](n6cc(NC(=O)c7cnn8ccc(N9CCNCC9)nc78)c(C(F)F)n6)CC5)CC4)cccc32)C(=O)N1 (stereo partly shown) [I-165],IC50,OCI-LY10,500 to 1000 nM
same,DC50,IRAK4; [1],10 to 100 nM
O=C1CCC(N2C(=O)c3cccc(NCC4CC5(CCN(C(=O)[C@H]6CC[C@H](n7cc(NC(=O)c8cnn9ccc(N%10CCNCC%10)nc89)c(C(F)F)n7)CC6)CC5)C4)c3C2=O)C(=O)N1 (stereo partly shown) [I-370],IC50,OCI-LY10,100 to 500 nM
same,DC50,IRAK4; [1],10 to 100 nM
Cc1nc2cccc(OCCCOC3CCN(C[C@H]4CC[C@H](n5cc(NC(=O)c6cnn7ccc(N8CCOCC8)nc67)c(C(F)F)n5)CC4)CC3)c2c(=O)n1C1CCC(=O)NC1=O (stereo partly shown) [I-215],IC50,OCI-LY10,> 1000 nM
same,DC50,IRAK4; [1],> 1000 nM
same,DC50,IRAK4; [2],> 1000 nM
CN(C[C@H]1CC[C@H](n2cc(NC(=O)c3cnn4ccc(N5CCOCC5)nc34)c(C(F)F)n2)CC1)C1CCC(N(C)c2cccc3c2C(=O)N(C2CCC(=O)NC2=O)C3=O)CC1 (stereo partly shown) [I-222],IC50,OCI-LY10,100 to 500 nM
same,DC50,IRAK4; [1],10 to 100 nM
CN1C(=O)CCC(n2c(=O)n(C)c3c(CCCOC4CCN(C[C@H]5CC[C@H](n6cc(NC(=O)c7cnn8ccc(N9CCOCC9)nc78)c(C(F)F)n6)CC5)CC4)cccc32)C1=O (stereo partly shown) [I-195],IC50,OCI-LY10,> 1000 nM
same,DC50,IRAK4; [1],100 to 1000 nM
"CN(C[C@H]1CC[C@H](n2cc(NC(=O)c3coc(-c4ccnc(NCC5CC5)c4)n3)c(C(F)F)n2)CC1)C1CCN(Cc2cccc3c2n(C)c(=O)n3[C@H]2CCC(=O)NC2=O)CC1 [I-308, 2-(2-((cyclopropylmethyl)amino)pyridin-4-yl)-N-(3-(difluoromethyl)-1-((1S,4r)-4-(((1-((1-((S)-2,6-dioxopiperidin-3-yl)-3-methyl-2-oxo-2,3-dihydro-1H-benzo [d]imidazol-4-yl)methyl)piperidin-4-yl)(methyl)amino)methyl)cyclohexyl)-1H-pyrazol-4-yl)oxazole-4-carboxamide]",IC50,OCI-LY10,< 50 nM
same,DC50,IRAK4; [1],< 10 nM
Cn1c(=O)n(C2CCC(=O)NC2=O)c2ccc(CCCOC3CCN(C[C@H]4CC[C@H](n5cc(NC(=O)c6cnn7ccc(N8CCOCC8)nc67)c(C(F)F)n5)CC4)CC3)cc21 (stereo partly shown) [I-176],IC50,OCI-LY10,> 1000 nM
same,DC50,IRAK4; [1],10 to 100 nM
O=C1CCC(N2C(=O)c3cccc(NCC4CC5(CCN(C[C@H]6CC[C@H](n7cc(NC(=O)c8cnn9ccc(N%10C[C@H]%11C[C@@H]%10CO%11)nc89)c(C(F)F)n7)CC6)CC5)C4)c3C2=O)C(=O)N1 (stereo partly shown) [I-373],IC50,OCI-LY10,< 50 nM
same,DC50,IRAK4; [1],> 1000 nM
same,DC50,IRAK4; [2],10 to 100 nM
CN(CCOCCOCCOC12CC3CC(CC(C3)C1)C2)C[C@H]1CC[C@H](n2cc(NC(=O)c3coc(-c4ccnc(NCC5CC5)c4)n3)c(C(F)F)n2)CC1 [I-174],IC50,OCI-LY10,> 1000 nM
same,DC50,IRAK4; [1],> 1000 nM
same,DC50,IRAK4; [2],> 1000 nM
C[C@@H](CCNc1cccc2c1C(=O)N(C1CCC(=O)NC1=O)C2=O)OC1CCN(C[C@H]2CC[C@H](n3cc(NC(=O)c4cnn5ccc(N6C[C@H]7C[C@@H]6CO7)nc45)c(C(F)F)n3)CC2)CC1 (stereo partly shown) [I-551],IC50,OCI-LY10,< 50 nM
same,DC50,IRAK4; [3],100 to 1000 nM
Cn1c(=O)n(C2CCC(=O)NC2=O)c2cccc(CN3CCC4(CC3)CCN(C[C@H]3CC[C@H](n5cc(NC(=O)c6coc(-c7ccnc(NCC8CC8)c7)n6)c(C(F)F)n5)CC3)CC4)c21 (stereo partly shown) [I-245],IC50,OCI-LY10,< 50 nM
same,DC50,IRAK4; [1],10 to 100 nM
Cn1c(=O)n(C2CCC(=O)NC2=O)c2cccc(CN3CCC(N(C)[C@H]4CC[C@H](Oc5ncnc6ccc(C#N)cc56)CC4)CC3)c21 (stereo partly shown) [I-270],IC50,OCI-LY10,> 1000 nM
same,DC50,IRAK4; [1],> 1000 nM
same,DC50,IRAK4; [2],> 1000 nM
CN(CC1CCN(c2ccc3c(c2)n(C)c(=O)n3C2CCC(=O)NC2=O)CC1)C[C@H]1CC[C@H](n2cc(NC(=O)c3coc(-c4ccnc(NCC5CC5)c4)n3)c(C(F)F)n2)CC1 (stereo partly shown) [I-236],IC50,OCI-LY10,> 1000 nM
same,DC50,IRAK4; [1],< 10 nM
"Cn1c(=O)n([C@@H]2CCC(=O)NC2=O)c2cccc(CCCOC3CCN(C[C@H]4CC[C@H](n5cc(NC(=O)c6cnn7ccc(N8CCOCC8)nc67)c(C(F)F)n5)CC4)CC3)c21 [I-311, N-(3-(difluoromethyl)-1-((1r,4r)-4-((4-(3-(1-((R)-2,6-dioxopiperidin-3-yl)-3-methyl-2-oxo-2,3-dihydro-1H-benzo [d]imidazol-4-yl)propoxy)piperidin-1-yl)methyl)cyclohexyl)-1H-pyrazol-4-yl)-5-morpholinopyrazolo[1,5-a] pyrimidine-3-carboxamide]",IC50,OCI-LY10,> 1000 nM
same,DC50,IRAK4; [1],10 to 100 nM
Cc1ncsc1-c1ccc(CNC(=O)[C@@H]2C[C@@H](O)CN2C(=O)[C@@H](NC(=O)COCCOCCOCCOCC(=O)N2CCN(C3CCC(Nc4ncnc5cc(CC#N)ccc45)CC3)CC2)C(C)(C)C)cc1 (stereo partly shown) [I-49],IC50,OCI-LY10,> 1000 nM
same,DC50,IRAK4; [1],> 1000 nM
